Measurements published in PMC8305389, “Tuning Photodynamic Properties of BODIPY Dyes, Porphyrins’ Little Sisters” (Molecules, 2021).
Marks after values point to notes of the source that are not given here. One block for each molecule: values may come before it.

Tests used:
[1] = Photobleaching in serum-containing cell culture medium; assay type: physicochemical; conditions: 10 µM, 1 h of irradiation, 500W halogen lamp
Experimental: The photobleaching experiments were performed in a serum-containing cell culture medium at a concentration of 10 µM. The samples were prepared by direct dilution from the 1 mM DMSO stock solution (0.5 mM in case of 4b). The quartz cuvette with the sample (2.5 mL) was irradiated by the 500W halogen lamp (Tip) from a distance of 60 cm at room temperature. The light was filtered through a 7 cm water filter to eliminate heat. The absorption spectra were collected every 10 min. The experiment was performed in triplicate.

[2] = system: human melanoma (SK-MEL-28) cells; experiment: Photodynamic activity (phototoxicity) after light activation, Neutral Red uptake; assay type: cell-based
Experimental: (§1) The human cervical carcinoma (HeLa) and human melanoma (SK-MEL-28) cell lines were purchased from the American Type Cell Culture Collection (ATCC; Manassas, VA, USA). Both cell lines were cultured in Dulbecco’s modified Eagle’s medium (DMEM) without phenol red (Lonza, Verviers, Belgium) and supplemented with 10% heat-inactivated fetal bovine serum (Sigma-Aldrich (Merck, Darmstadt, Germany), 1% penicillin/streptomycin solution (Lonza), 10 mM HEPES buffer (Lonza), and 4 mM ultraglutamine I (alanyl-L-glutamine; Lonza). The cell lines were cultured in 75 cm^2 tissue culture flasks (TPP, Trasadingen, Switzerland) and maintained in a CO2 incubator at 37 °C in a humidified atmosphere of 5% CO2 and subcultured every 3−4 days. For the cytotoxicity experiments (phototoxicity and dark toxicity), cells were seeded into 96-well plates (TPP) at a density of 7.5 × 10^3 (HeLa and SK-MEL-28) cells per well for 24 h.
(§2) Stock solutions of the investigated compounds were prepared in DMSO at a concentration of 0.5 mM (4b) or 1 mM (all other compounds) and were sterilized by filtration through 0.22 μm syringe MCE filters. The stock solutions were diluted by the above-mentioned cell culture medium to the required concentrations. The maximum DMSO concentration in the medium in the experiments was 1% (2% in case of cpd. 4b). Cytoxicity of DMSO at corresponding concentrations (without studied compounds) was assessed in all cytotoxicity experiments as well—no toxicity against SK-MEL-28 or HeLa cells was observed.
(§3) For the photodynamic activity assessment experiments (phototoxicity), both HeLa and SK-MEL-28 cells were incubated overnight (12 h) with the studied compounds. The cells were then carefully and swiftly washed twice with a prewarmed sterile phosphate-buffered saline, fresh cell culture medium was added, and cells were subsequently irradiated for 15 min using a 450 W ozone-free Xe lamp (Newport; intensity reduced to 400 W). The lamp was equipped with a long-pass filter (Newport 20CGA-455) and an 8-cm water filter to cut off undesirable wavelengths and heat radiation, respectively (λ > 455 nm, 15.3 mW cm^−2, 15 min, 13.7 J cm^−2). Cellular viability was measured after an additional 24 h by the above-mentioned NR uptake assay. At least four independent experiments, each in triplicate, were performed.
(§4) The concentrations of the studied compounds that induced a 50% decrease in cellular viability after treatment under the dark conditions (TC50, the median toxic concentration) or after the photodynamic treatment (EC50, the median effective concentration) were calculated using GraphPad Prism software (version 9.1.2; GraphPad Software, Inc., San Diego, CA, USA) for each independent experiment. The data are presented as the means ± standard deviations of these values.

[3] = system: human cervical carcinoma (HeLa) cells; experiment: as above; assay type: cell-based; conditions: Homo sapiens, light or radiation study; HeLa; 12 h incubation; λ > 455 nm, 15.3 mW cm−2, 15 min, 13.7 J cm−2
Experimental: as §1, §2, §3, §4

SK-MEL-28 cells [4] = experiment: Dark toxicity (without irradiation), Neutral Red uptake; assay type: cell-based, human; conditions: 24 h in the dark, compounds precipitated over listed values
Experimental: as §1, §2
To assess dark toxicities (inherent toxicities of the studied compounds without irradiation), SK-MEL-28 cells were treated with studied PSs for 24 h in the dark. Viability was evaluated after two washing steps using the Neutral Red (NR; Sigma-Aldrich (Merck, Darmstadt, Germany) uptake assay, based on the ability of the living cells to incorporate NR into their intact lysosomes (concentration of NR in cell culture medium was 30 μg/mL and incubation time with NR was 2 h). The absorbance of soluble NR in cell lysate was measured at λ = 540 nm using a Tecan Infinite 200 M plate reader (Tecan, Männedorf, Switzerland). The viability of each experimental group was expressed as the percentage of the untreated controls incubated under the same conditions (100%). After staining (before lysis), the cells were briefly investigated under the microscope to verify changes in cellular morphology and the presence of NR in lysosomes (orange-red spots in the cells). These observations were in agreement with NR measurements.
as §4

[5] = Absorption and fluorescence measurements (quantum yield, lifetime); assay type: physicochemical; conditions: MeOH
Experimental: The singlet oxygen quantum yields (ΦΔ) and the fluorescence quantum yields (ΦF) of tested samples in MeOH were determined using published comparative (relative) methods with rhodamin-G6 used as a reference for fluorescence (ΦF = 0.94 in EtOH [31]), and bengal rose as a reference for singlet oxygen determinations (ΦΔ = 0.76 in MeOH [32]). Singlet oxygen measurements were performed with 1,3-diphenylisobenzofuran as the chemical scavenger of singlet oxygen by monitoring its decomposition at 417 nm. The ΦF values were also determined by an absolute method using an integrating sphere in an FLS1000 fluorimeter (Edinburgh Instruments, Edinburgh, UK). Fluorescence lifetimes were measured on the same fluorimeter upon excitation by HPL510 laser (Edinburgh Instruments, λ = 506.1 nm).

HeLa cells [6] = system: HeLa cells; set-up: method as in PMID 27682881; conditions: on HeLa cells; cited from earlier work
HeLa cells [7] = system: HeLa cells; set-up: method as in PMID 27682881; conditions: cited from earlier work; for EC50: HeLa, λ > 570 nm, 12.4 mW cm−2, 15 min, 11.2 J cm−2, read-out: EC50, photodynamic activity; for TC50/EC50, phototherapeutic index: on HeLa cells
[8] = set-up: method as in PMID 10546544; conditions: in MeOH; cited from earlier work
SK-MEL-28 cells [9] = experiment: RealTime-Glo Annexin V Apoptosis and Necrosis Assay (cell death determination); assay type: cell-based, human; conditions: TRAIL 400 ng/mL, paclitaxel 1 μM, digitonin 25 μg/mL
Source text: A RealTime-Glo™ Annexin V Apoptosis and Necrosis Assay (Promega, Madison, WI, USA) was utilized for the real-time assessment of cell death. This monitors phosphatidylserine exposure on the outer leaflet of the cytoplasmic membrane (increase in luminescence signal) together with binding of the membrane-impermeable probe to DNA (increase in fluorescence signal) that accompanies a loss of membrane integrity, typical for late stages of apoptosis (secondary necrosis) or necrotic type of cell death. According to the manufacturer, this assay uses Annexin V fusion proteins containing complementary subunits of luciferase (Annexin V-LgBiT and Annexin V-SmBiT). The luminescence signal is low until both subunits bind to phosphatidylserine, and in close vicinity form functional luciferase.
For this assay, SK-MEL-28 cells were seeded onto 96-well white clear-bottom plates (Corning, New York, NY, USA) in a 1:1 mixture of DMEM and CO2 independent medium (Gibco; supplemented with 10% FBS, 1% penicillin/streptomycin solution and 4 mM ultraglutamine I). The next day, the medium was replaced with a fresh CO2 independent medium, and cells were incubated overnight. The next day, studied PSs dissolved in a CO2 independent medium in concentrations corresponding to their EC85 were added as described above. […] After mixing, samples were placed into a plate reader with a temperature control (Tecan Spark, Männedorf, Switzerland) and measured each 15 min for 24 h—luminescence (200 ms integration time) and fluorescence (λexc = 485 nm; λemi = 530 nm, BPexc/emi = 20 nm; 10 flashes per well, 40 μs integration time).
Digitonin (25 μg/mL), TRAIL (400 ng/mL), and paclitaxel (1 μM) were used as positive controls for membrane-disturbing-agent induced necrosis, extrinsic-pathway-mediated apoptosis, and intrinsic-pathway-mediated apoptosis, respectively. Cell-free wells (no-cell controls) were used to subtract background luminescence and fluorescence for each time point. […]

[10] = set-up: method as in doi:10.1016/0009-2614(96)00838-X; conditions: in EtOH; cited from earlier work

- absorption remaining, of the original value, after irradiation (photobleaching) [1]: approximately 87%
- absorption maximum (λmax) [5]: 498 nm
- emission maximum (λF) [5]: 507 nm
- extinction coefficient (log ε) ([5]; at λmax): 4.77
- fluorescence quantum yield, absolute method (ΦF(absol)) ([5]; integrating sphere): 0.52
- fluorescence quantum yield, relative method (ΦF(relat)) ([5]; rhodamin-G6 as reference): 0.49
- fluorescence lifetime (τF) ([5]; λexc = 506.1 nm): 3.27 ns
Molecule: CC1=CC(C)=[N+]2C1=C(c1ccc(OCCCCCN3C(=O)c4ccccc4C3=O)cc1)c1c(C)cc(C)n1[B-]2(F)F [2a, 1,3,5,7-Tetramethyl-8-{4-[5-(phthalimidyl)pentyloxy]phenyl}-4,4-difluoro-4-bora-3a,4a-diaza-s-indacene]
- TC50/EC50, phototherapeutic index [2]: >3.92
- EC50 ([2]; Homo sapiens, light or radiation study, 12 h incubation, λ > 455 nm, 15.3 mW cm−2, 15 min, 13.7 J cm−2): 2.55 ± 0.14 µM
- EC50 [3]: 3.6 ± 0.19 µM
- TC50, dark toxicity (SK-MEL-28 cells [4]): >10^b μM

Molecule: CN(C)c1ccc2nc3ccc(=[N+](C)C)cc-3sc2c1 [Methylene blue]
- TC50, dark toxicity (HeLa cells [6]): 22.7 ± 7.9 ^d μM
- EC50 (HeLa cells [7]): 5.15 ± 1.93 µM
- TC50/EC50, phototherapeutic index (HeLa cells [7]): 4.4 ^d

Molecule: C=CC1=C(C)c2cc3[nH]c(cc4nc(cc5[nH]c(cc1n2)c(C)c5CCC(=O)O)C(CCC(=O)O)=C4C)c(C)c3C=C [Pp IX, protoporphyrin IX]
- TC50, dark toxicity (HeLa cells [6]): >10 ^b,d μM
- EC50 (HeLa cells [7]): 0.8 ± 0.13 µM
- TC50/EC50, phototherapeutic index (HeLa cells [7]): >10 ^d

Molecule: O=C(O)c1c(Cl)c(Cl)c(Cl)c(Cl)c1-c1c2cc(I)c(=O)c(I)c-2oc2c(I)c(O)c(I)cc12 [bengal rose]
- singlet oxygen quantum yield (ΦΔ) of reference [8]: 0.76

Molecule: C[C@@H]1CC[C@@]2(OC1)O[C@H]1[C@@H](O)[C@H]3[C@@H]4CC[C@H]5C[C@@H](O[C@@H]6O[C@H](CO)[C@H](O[C@@H]7O[C@H](CO)[C@@H](O)[C@H](O[C@@H]8OC[C@@H](O)[C@H](O)[C@H]8O)[C@H]7O[C@@H]7O[C@H](CO)[C@H](O)[C@H](O[C@@H]8O[C@H](CO)[C@@H](O)[C@H](O)[C@H]8O)[C@H]7O)[C@H](O)[C@H]6O)[C@H](O)C[C@]5(C)[C@H]4CC[C@]3(C)[C@H]1[C@@H]2C [digitonin]
- delay between luminescence (Annexin V) and fluorescence (DNA probe) signal surge, positive controls (SK-MEL-28 cells [9]): simultaneous and immediate rise in luminescence and fluorescence

Molecule: CC(=O)O[C@H]1C(=O)[C@@]2(C)[C@H]([C@H](OC(=O)c3ccccc3)[C@]3(O)C[C@H](OC(=O)[C@H](O)[C@@H](NC(=O)c4ccccc4)c4ccccc4)C(C)=C1C3(C)C)[C@]1(OC(C)=O)CO[C@@H]1C[C@@H]2O [paclitaxel]
- delay between luminescence (Annexin V) and fluorescence (DNA probe) signal surge, positive controls (SK-MEL-28 cells [9]): ~11.5 h

Molecule: CCN=c1cc2oc3cc(NCC)c(C)cc3c(-c3ccccc3C(=O)OCC)c-2cc1C.Cl [rhodamin-G6]
- fluorescence quantum yield (ΦF) of reference [10]: 0.94

Molecule: Oc1cccc(-c2c3nc(c(-c4cccc(O)c4)c4ccc([nH]4)c(-c4cccc(O)c4)c4nc(c(-c5cccc(O)c5)c5ccc2[nH]5)CC4)C=C3)c1 [temoporfin]
- TC50, dark toxicity (HeLa cells [6]): 20.6 ± 2.5 ^d μM
- EC50 (HeLa cells [7]): 0.045 ± 0.007 µM
- TC50/EC50, phototherapeutic index (HeLa cells [7]): 460 ^d

B1: TRAIL: inducer of extrinsic-pathway apoptosis, positive control (protein, UniProt P50591 1-281, looked up)
Tumor necrosis factor ligand …: MAMMEVQGGPSLGQTCVLIVIFTVLLQSLCVAVTYVYFTNELKQMQDKYSKSGIACFLKEDDSYWDPNDEESMNSPCWQVKWQLRQLVRKMILRTSEETISTVQEKQQNISPLVRERGPQRVAAHITGTRGRSNTLSSPNSKNEKALGRKINSWESSRSGHSFLSNLHLRNGELVIHEKGFYYIYSQTYFRFQEEIKENTKNDKQMVQYIYKYTSYPDPILLMKSARNSCWSKDAEYGLYSIYQGGIFELKENDRIFVSVTNEHLIDMDHEASFFGAFLVG
- delay between luminescence (Annexin V) and fluorescence (DNA probe) signal surge, positive controls (SK-MEL-28 cells [9]): approximately 3.5 h
